The source of these data is US6001882A (priority 1997, dated 1999).

This assay concerns PBMC from a patient to whom 8-MOP had been administered. The experiment in a line: ConA-induced proliferation of PBMC from a patient to whom 8-MOP had been administered, visible light. In kind it is cell-based, human. Particulars: 20 min. The method, then: PBMC from a patient to whom 8-MOP had been administered were illuminated for 20 minutes using the bank of visible fluorescent lights used in the experiments described in this example. Proliferation of these cells in response to ConA was measured.

On to `COc1c2occc2cc2ccc(=O)oc12` [8-MOP, 8-methoxypsoralen], for which the “illumination-dependent inhibition of proliferation” value is “No illumination-dependent inhibition of proliferation”.
